Data set [1] addresses T1, human VAP-1 enzyme (SSAO) (Homo sapiens, UniProt Q16853).
T1 construct: made in house; cell extract used
T1 sequence (Q16853 1-763): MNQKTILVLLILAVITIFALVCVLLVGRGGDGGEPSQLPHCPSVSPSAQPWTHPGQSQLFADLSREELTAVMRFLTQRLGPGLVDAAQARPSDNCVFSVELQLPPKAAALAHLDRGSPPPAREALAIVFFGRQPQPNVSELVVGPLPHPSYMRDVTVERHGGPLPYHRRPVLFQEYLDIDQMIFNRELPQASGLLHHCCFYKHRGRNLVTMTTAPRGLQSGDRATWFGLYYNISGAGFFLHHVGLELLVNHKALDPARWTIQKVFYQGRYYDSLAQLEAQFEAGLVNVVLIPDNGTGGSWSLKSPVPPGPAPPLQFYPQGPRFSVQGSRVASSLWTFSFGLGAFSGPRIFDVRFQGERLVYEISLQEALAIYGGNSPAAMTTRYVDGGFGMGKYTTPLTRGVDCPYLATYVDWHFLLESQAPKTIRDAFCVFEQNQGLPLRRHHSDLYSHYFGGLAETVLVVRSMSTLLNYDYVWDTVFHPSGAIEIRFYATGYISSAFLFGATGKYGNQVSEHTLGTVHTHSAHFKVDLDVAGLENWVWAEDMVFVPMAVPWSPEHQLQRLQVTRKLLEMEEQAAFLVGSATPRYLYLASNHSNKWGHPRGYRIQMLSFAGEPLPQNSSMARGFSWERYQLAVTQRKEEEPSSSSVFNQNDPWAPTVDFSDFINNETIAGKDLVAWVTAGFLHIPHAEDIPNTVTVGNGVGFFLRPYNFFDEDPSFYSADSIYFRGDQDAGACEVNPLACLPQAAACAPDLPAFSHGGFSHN
Description: Enzyme activity inhibitory effect on human VAP-1 enzyme (SSAO), radiochemical-enzyme assay with 14C-benzylamine. Type of data set: biochemical. Conditions: human VAP-1 (SSAO) cell extract, 14C-benzylamine 1×10^−5 mol/l, 37° C. 2 hours. Here is the method: (§1) The compounds of the present invention obtained in Production Examples were examined for the enzyme activity inhibitory effect on human and rat VAP-1 enzyme (SSAO) by the following method.
(§2) The VAP-1 enzyme (SSAO) activity in both human and rat was measured by a radiochemical-enzyme assay using ^14C-benzylamine as an artificial substrate. Human or rat VAP-1 was cloned from the cDNA library and expressed in a cell. The cell extract was preincubated with a test compound solution (final concentration 1×10^−7-1×10^−11 mol/l) at room temperature for 20 minutes. Then, ^14C-benzylamine (final concentration 1×10^−5 mol/l) was added, and the mixture was incubated at a final volume of 200 μl at 37° C. for 2 hours. The enzyme reaction was stopped by addition of 2 mol/l (200 μl) citric acid. The oxidation product was extracted with 1 ml toluene/ethyl acetate (1:1), and the radioactivity thereof was measured by a liquid scintillation counter.

The target of the next data set is T2, rat VAP-1 enzyme (SSAO) (Rattus norvegicus, UniProt O08590).
T2 construct: made in house; cell extract used
T2 sequence (O08590 1-763): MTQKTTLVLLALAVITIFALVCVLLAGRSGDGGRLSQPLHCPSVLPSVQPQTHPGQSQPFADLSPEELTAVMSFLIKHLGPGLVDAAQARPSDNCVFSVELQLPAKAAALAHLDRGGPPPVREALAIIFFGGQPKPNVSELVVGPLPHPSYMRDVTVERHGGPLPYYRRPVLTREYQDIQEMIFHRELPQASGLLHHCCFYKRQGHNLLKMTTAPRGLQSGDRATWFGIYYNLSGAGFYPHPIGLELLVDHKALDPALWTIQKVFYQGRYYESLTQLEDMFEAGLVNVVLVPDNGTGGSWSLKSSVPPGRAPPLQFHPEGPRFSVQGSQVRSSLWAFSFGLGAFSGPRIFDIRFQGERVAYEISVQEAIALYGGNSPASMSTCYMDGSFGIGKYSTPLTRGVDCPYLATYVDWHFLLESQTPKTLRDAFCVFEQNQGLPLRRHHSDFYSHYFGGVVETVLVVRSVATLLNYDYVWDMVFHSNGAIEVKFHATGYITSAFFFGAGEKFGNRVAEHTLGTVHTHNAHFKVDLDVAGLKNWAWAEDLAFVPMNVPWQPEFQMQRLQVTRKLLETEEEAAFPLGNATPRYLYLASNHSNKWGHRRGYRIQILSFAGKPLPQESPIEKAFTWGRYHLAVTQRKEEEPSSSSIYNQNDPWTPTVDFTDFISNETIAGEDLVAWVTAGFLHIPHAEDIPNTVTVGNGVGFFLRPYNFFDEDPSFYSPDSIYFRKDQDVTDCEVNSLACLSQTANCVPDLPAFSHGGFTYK
Description: Enzyme activity inhibitory effect on rat VAP-1 enzyme (SSAO), radiochemical-enzyme assay with 14C-benzylamine. Type of data set: biochemical. Conditions: rat VAP-1 (SSAO) cell extract, 14C-benzylamine 1×10^−5 mol/l, 37° C. 2 hours. The procedure:
as §1, §2

The results in this text go back to patent publication US8507690B2, “Thiazole derivative and use thereof as VAP-1 inhibitor” (R-Tech Ueno, Ltd., priority 2008, dated 2013).

Molecule `CC(=O)Nc1nc(CCc2cccc(CNC(=O)NN)c2)cs1.Cl` [Production Example 27, N-(3-{2-[2-(acetylamino)-1,3-thiazol-4-yl]ethyl}benzyl)hydrazinecarboxamide hydrochloride] yielded a melting point of 123 to 127 °C. In data set [1], this molecule yielded an IC50 of 2.1 nM. Besides, the IC50 on rat VAP-1 enzyme (SSAO) turned out to be 0.6 nM.
The corresponding values for `CC(=O)Nc1nc(CCc2ccc(OC(=O)NN)cc2)cs1.Cl` [Production Example 1, 4-{2-[2-(acetylamino)-1,3-thiazol-4-yl]ethyl}phenyl hydrazinecarboxylate hydrochloride] are 167 to 169 °C, 2.5 nM and 0.2 nM.
The matching figures for `CC(=O)Nc1nc(CCc2ccc(COC(=O)NN)c(F)c2)cs1.Cl` [Production Example 4, 4-{2-[2-(acetylamino)-1,3-thiazol-4-yl]ethyl}-2-fluorobenzyl hydrazinecarboxylate hydrochloride]: 162 to 165 °C, 0.8 nM and 0.4 nM.
The matching figures for `CC(=O)Nc1nc(CCc2ccc(CNC(=O)NN)c(F)c2)cs1.Cl` [Production Example 20, N-(4-{2-[2-(acetylamino)-1,3-thiazol-4-yl]ethyl}-2-fluorobenzyl)hydrazinecarboxamide hydrochloride]: 172 to 175 °C, 2.8 nM and 1.6 nM.
On to `CC(=O)Nc1nc(CCc2cccc(CCNC(=O)NN)c2)cs1.Cl` [Production Example 28, N-[2-(3-{2-[2-(acetylamino)-1,3-thiazol-4-yl]ethyl}phenyl)ethyl]hydrazinecarboxamide hydrochloride], for which the melting point was 176 to 179 °C. The molecule also yielded an IC50 in data set [1] of 44.3 nM. At rat VAP-1 enzyme (SSAO), this molecule showed an IC50 of 5.6 nM.
The corresponding values for `CC(=O)Nc1nc(CCc2cccc(COC(=O)NN)c2)cs1.Cl` [Production Example 11, 3-{2-[2-(acetylamino)-1,3-thiazol-4-yl]ethyl}benzyl hydrazinecarboxylate hydrochloride] are 113 to 119 °C, 1.3 nM and 0.2 nM.
The corresponding values for `CC(=O)Nc1nc(CCc2ccc(CNC(=O)NN)cc2)cs1.Cl` [Production Example 18, N-(4-{2-[2-(acetylamino)-1,3-thiazol-4-yl]ethyl}benzyl)hydrazinecarboxamide hydrochloride] are 167 to 169 °C, 4 nM and 1.3 nM.
The matching figures for `CC(=O)Nc1nc(CCc2ccc(COC(=O)NN)cc2)cs1.Cl` [Production Example 2, 4-{2-[2-(acetylamino)-1,3-thiazol-4-yl]ethyl}benzyl hydrazinecarboxylate hydrochloride]: 162 to 164 °C, 0.9 nM and 0.7 nM.
The molecule `CC(=O)Nc1nc(CCc2cc(C)c(CCCNC(=O)NN)s2)cs1.Cl` [Production Example 33, N-[3-(5-{2-[2-(acetylamino)-1,3-thiazol-4-yl]ethyl}-3-methylthiophen-2-yl)propyl]hydrazinecarboxamide hydrochloride] showed a melting point of 152 to 157 °C. In data set [1], half-maximal inhibition (IC50) required 108 nM. The IC50 on rat VAP-1 enzyme (SSAO) turned out to be 2.1 nM.
The matching figures for `CC(=O)Nc1nc(COc2ccc(CCOC(=O)NN)cc2)cs1` [Production Example 7, 2-(4-{[2-(acetylamino)-1,3-thiazol-4-yl]methoxy}phenyl)ethyl hydrazinecarboxylate]: 177 to 180 °C, 57 nM and 7.1 nM.
The corresponding values for `CC(=O)Nc1nc(CCc2ccc(CCNC(=O)NN)s2)cs1.Cl` [Production Example 30, N-[2-(5-{2-[2-(acetylamino)-1,3-thiazol-4-yl]ethyl}thiophen-2-yl)ethyl]hydrazinecarboxamide hydrochloride] are 178 to 181 °C, 18.8 nM and 3.8 nM.
The matching figures for `CC(=O)Nc1nc(C(=O)Nc2ccc(CCOC(=O)NN)cc2)cs1.Cl` [Production Example 9, 2-[4-({[2-(acetylamino)-1,3-thiazol-4-yl]carbonyl}amino)phenyl]ethyl hydrazinecarboxylate hydrochloride]: 225 to 233 °C, 17.1 nM and 1 nM.
Turning to `CC(=O)Nc1nc(C(=O)Oc2ccc(CCNC(=O)NN)cc2)cs1.Cl` [Production Example 26, 4-{2-[(hydrazinocarbonyl)amino]ethyl}phenyl 2-(acetylamino)-1,3-thiazole-4-carboxylate hydrochloride], the melting point was in the range of 204 to 207 °C. In data set [1], this molecule gave an IC50 of 13.3 nM. In addition, the IC50 at rat VAP-1 enzyme (SSAO) stood at 3.3 nM.
The matching figures for `CC(=O)Nc1nc(CCc2ccc(CCNC(=O)NN)cc2)cs1.Cl` [Production Example 19, N-[2-(4-{2-[2-(acetylamino)-1,3-thiazol-4-yl]ethyl}phenyl)ethyl]hydrazinecarboxamide hydrochloride]: 171 to 173 °C, 12.2 nM and 2.3 nM.
The matching figures for `CC(=O)Nc1nc(CCc2ccc(COC(=O)NN)cc2F)cs1.Cl` [Production Example 5, 4-{2-[2-(acetylamino)-1,3-thiazol-4-yl]ethyl}-3-fluorobenzyl hydrazinecarboxylate hydrochloride]: 204 to 208 °C, 1.2 nM and 1.1 nM.
